In US8987288B2, “Heterocyclic aminoberbamine derivatives, the preparation process and use thereof” (Hangzhou Bensheng Pharmaceutical Co., Ltd., priority 2010, dated 2015):
≈ marks a conversion by molar mass, not a printed value. Like-named read-outs stand apart in the source and are kept apart here.

How the values were obtained:
[1] = tested on: Jurkat (acute lymphoblastic leukemia, ALL); assay: Leukemia cell growth inhibition, MTT, 72 h; type: cell-based, human
Source text: (§1) Leukemia cell lines; human K562 leukemia cell line (chronic myeloid leukemia, CML), K562/adr (drug-resistant chronic myeloid leukemia (CML), NB4 (acute promyelocytic leukemia, AML), Kasumi-1 (acute myeloid leukemia M2 type, AML-M2), Jurkat (acute lymphoblastic leukemia, ALL), H9 (acute lymphoblastic leukemia, ALL). Obtaining 6000 well-growing leukemia cells and inoculating them into wells of a 96-well cell culture plate. The culture medium is the 1640 cell culture medium containing 10% fetal bovine serum. After adding of the berbamine derivatives of different concentrations and mixing uniformly, the plate is placed in a carbon dioxide cell incubator (5% CO2) at 37° C. and incubated for 72 hours. Then the viable cell concentration is determined by the MTT method.

[2] = tested on: K562 leukemia cell line (chronic myeloid leukemia, CML); assay: Leukemia cell growth inhibition, MTT, 72 h; type: cell-based, human
Source text: as §1

[3] = tested on: K562/adr (drug-resistant chronic myeloid leukemia); assay: Leukemia cell growth inhibition, MTT, 72 h; type: cell-based, human
Source text: as §1

[4] = tested on: H9 (acute lymphoblastic leukemia, ALL); assay: Leukemia cell growth inhibition, MTT, 72 h; type: cell-based; settings: Homo sapiens, read-out: half inhibiting concentration (IC50 value) H9
Source text: as §1

[5] = tested on: Kasumi-1 (acute myeloid leukemia M2 type); assay: Leukemia cell growth inhibition, MTT, 72 h; type: cell-based; settings: Homo sapiens, read-out: half inhibiting concentration (IC50 value) Kasumi-1
Source text: as §1

[6] = tested on: NB4 (acute promyelocytic leukemia, AML); assay: Leukemia cell growth inhibition, MTT, 72 h; type: cell-based; settings: Homo sapiens, read-out: half inhibiting concentration (IC50 value) NB4
Source text: as §1

[7] = tested on: RPMI 8226 (multiple myeloma); assay: Multiple myeloma cell growth inhibition, MTT, 72 h; type: cell-based, human
Protocol: Multiple myeloma and lymphoma cell lines: RPM18226 (multiple myeloma). Obtaining 6000 well-growing abovesaid tumor cells and inoculating them into wells of a 96-well cell culture plate. The culture medium is the 1640 cell culture medium containing 10% fetal bovine serum. After adding the berbamine derivatives of different concentrations and mixing uniformly, the plate is placed in a carbon dioxide cell incubator (5% CO2) at 37° C. and incubated for 72 hours. Then the viable cell concentration is determined by the MTT method.

[8] = tested on: MCF-7 (breast cancer); assay: Solid tumor cell growth inhibition, MTT, 72 h; type: cell-based, human
Source text: (§2) Human solid tumor cell lines: HepG2 (human hepatocellular carcinoma, HCC), A549 (human lung cancer), MCF-7 (breast cancer), PANC-1 (pancreatic, cancer), PC-3 (prostate cancer). MG63 (osteosarcomas). AGS (gastric cancer), Huh7 (human hepatoma cell), Becap37 (human breast cancer cell), Hela (human cervical cancer cell), RKO (human colon adenocarcinoma cell), SW620 (human colon adenocarcinoma cell), SW480 (human colon cancer cell), MGC 803 (human gastric cancer cell). Obtaining 4000 well-growing human solid tumor cells and inoculating them into wells of a 96-well cell culture plate. The culture medium is DMEM High Glucose cell culture medium containing 10% fetal bovine serum. Alter adding the berbamine derivatives of different concentration and mixing uniformly, the plate is placed in a carbon dioxide cell incubator (5% CO2) at 37° C. and incubated for 72 hours. Then the viable cell concentration is determined by the MTT method, and the cell viability (%) alter drug treatment is calculated. In this experiment, the cell viability of control group (not treated with any compound) is set as 100%.

[9] = tested on: MG63 (osteosarcomas); assay: Solid tumor cell growth inhibition, MTT, 72 h; type: cell-based, human
Source text: as §2

[10] = tested on: A549 (human lung cancer); assay: Solid tumor cell growth inhibition, MTT, 72 h; type: cell-based
Source text: as §2

[11] = tested on: AGS (gastric cancer); assay: Solid tumor cell growth inhibition, MTT, 72 h; type: cell-based; settings: Homo sapiens, read-out: half inhibiting concentration (IC50 value) AGS
Source text: as §2

[12] = tested on: Becap37 (human breast cancer cell); assay: Solid tumor cell growth inhibition, MTT, 72 h; type: cell-based; settings: read-out: half inhibiting concentration (IC50 value) Becap37
Source text: as §2

[13] = tested on: Hela (human cervical cancer cell); assay: Solid tumor cell growth inhibition, MTT, 72 h; type: cell-based; settings: read-out: half inhibiting concentration (IC50 value) Hela
Source text: as §2

[14] = tested on: HepG2 (human hepatocellular carcinoma, HCC); assay: Solid tumor cell growth inhibition, MTT, 72 h; type: cell-based
Source text: as §2

[15] = tested on: Huh7 (human hepatoma cell); assay: Solid tumor cell growth inhibition, MTT, 72 h; type: cell-based; settings: Huh-7, read-out: half inhibiting concentration (IC50 value) Huh7
Source text: as §2

[16] = tested on: MGC 803 (human gastric cancer cell); assay: Solid tumor cell growth inhibition, MTT, 72 h; type: cell-based
Source text: as §2

[17] = tested on: PANC-1 (pancreatic cancer); assay: Solid tumor cell growth inhibition, MTT, 72 h; type: cell-based; settings: Homo sapiens, read-out: half inhibiting concentration (IC50 value) PANC-1
Source text: as §2

[18] = tested on: PC-3 (prostate cancer); assay: Solid tumor cell growth inhibition, MTT, 72 h; type: cell-based; settings: Homo sapiens, read-out: half inhibiting concentration (IC50 value) PC-3
Source text: as §2

[19] = tested on: RKO (human colon adenocarcinoma cell); assay: Solid tumor cell growth inhibition, MTT, 72 h; type: cell-based; settings: read-out: half inhibiting concentration (IC50 value) RKO
Source text: as §2

[20] = tested on: SW480 (human colon cancer cell); assay: Solid tumor cell growth inhibition, MTT, 72 h; type: cell-based
Source text: as §2

[21] = tested on: SW620 (human colon adenocarcinoma cell); assay: Solid tumor cell growth inhibition, MTT, 72 h; type: cell-based; settings: SW-620, read-out: half inhibiting concentration (IC50 value) SW620
Source text: as §2

[22] = tested on: human leukemia Jurkat cells; settings: cited from earlier work
[23] = tested on: normal human peripheral blood leucocytes; settings: 0.5 ug/mL to 10 ug/mL; cited from earlier work
[24] = biological target: CaM (Homo sapiens, UniProt P0DP23); settings: higher than that of berbamine; cited from earlier work
[25] = tested on: red cell membrane CaM-independent Ca2++Mg2+ ATPase; settings: stronger than that of berbamine; cited from earlier work

In the case of `COc1cc2c3cc1Oc1c(OC)c(OC)cc4c1[C@@H](Cc1ccc(O)c(c1)Oc1ccc(cc1)C[C@@H]3N(C)CC2)N(C)CC4` [BBM, 6,6′,7-trimethoxy-2,2′-dimethylberbaman-12-ol], the IC50 ([1]; Homo sapiens, Jurkat, 72 hours, MTT, read-out: half inhibiting concentration (IC50 value) Jurkat) is reported as 1.9 µg/mL (≈ 3.12 µM), the IC50 ([2]; Homo sapiens, K562, 72 hours, MTT, read-out: half inhibiting concentration (IC50 value) K562) is reported as 3 µg/mL (≈ 4.93 µM) and the IC50 ([3]; Homo sapiens, K562/Adr, 72 hours, MTT, read-out: half inhibiting concentration (IC50 value) K562adr) is reported as 3.53 µg/mL (≈ 5.8 µM). For the same compound, the IC50 [4] was 5.04 µg/mL (≈ 8.28 µM), the IC50 [5] was 1.3 µg/mL (≈ 2.14 µM) and the IC50 [6] was 3 µg/mL (≈ 4.93 µM). It also gave an IC50 ([7]; Homo sapiens, RPMI-8226, 72 hours, MTT, read-out: half inhibiting concentration (IC50 value) RPMI 8226) of 1.17 µg/mL (≈ 1.92 µM), an IC50 ([8]; Homo sapiens, MCF7, 72 hours, MTT, read-out: half inhibiting concentration (IC50 value) MCF-7) of 20.6 µg/mL (≈ 33.8 µM) and an IC50 ([9]; Homo sapiens, MG-63, 72 hours, MTT, read-out: half inhibiting concentration (IC50 value) MG63) of 9.18 µg/mL (≈ 15.1 µM). The IC50 ([10]; Homo sapiens, A549, 72 hours, MTT, read-out: half inhibiting concentration (IC50 value) A549) was 5.38 µg/mL (≈ 8.84 µM), the IC50 [11] was 5.84 µg/mL (≈ 9.59 µM) and the IC50 [12] was 7.31 µg/mL (≈ 12 µM). For the same compound, the IC50 [13] was 5.04 µg/mL (≈ 8.28 µM), the IC50 ([14]; Homo sapiens, HepG2, 72 hours, MTT, read-out: half inhibiting concentration (IC50 value) Hepg2) was 6.67 µg/mL (≈ 11 µM) and the IC50 [15] was 7.63 µg/mL (≈ 12.5 µM). It also gave an IC50 ([16]; Homo sapiens, MGC-803, 72 hours, MTT, read-out: half inhibiting concentration (IC50 value) MGC803) of 4.96 µg/mL (≈ 8.15 µM), an IC50 [17] of 12.7 µg/mL (≈ 20.9 µM) and an IC50 [18] of 3.7 µg/mL (≈ 6.08 µM). It also gave an IC50 [19] of 2.34 µg/mL (≈ 3.84 µM), an IC50 ([20]; Homo sapiens, SW480, 72 hours, MTT, read-out: half inhibiting concentration (IC50 value) SW480) of 5.74 µg/mL (≈ 9.43 µM) and an IC50 [21] of 1.1 µg/mL (≈ 1.81 µM). For the same compound, the cell viability rate ([22]; drug concentration 0.5 ug/mL) was 93.69%, the cell viability rate ([22]; drug concentration 10 ug/mL) was 14.85% and the “cytotoxicity on normal human peripheral blood leucocytes” value [23] was “no obvious cytotoxicity”.

For `COc1cc2c3cc1Oc1c(OC)c(OC)cc4c1C(Cc1ccc(OCCCNc5ncc(C(=O)Nc6c(C)cccc6Cl)s5)c(c1)Oc1ccc(cc1)CC3N(C)CC2)N(C)CC4` (stereo not drawn) [Compound (2), 12-O-(3-(5-(2-chloro-6-methyl-phenyl-carbamoyl)-thiazol-2-amino)-propyl)-berbamine], the “improvement of anti-MG63 (osteosarcoma) cell activity compared with berbamine” value ([9]; vs berbamine) was “more than 12 fold”.

For `COc1cccc(NC(=O)c2sc(NCCCOc3ccc4cc3Oc3ccc(cc3)CC3c5cc(c(OC)cc5CCN3C)Oc3c(OC)c(OC)cc5c3C(C4)N(C)CC5)nc2C)c1` (stereo not drawn) [Compound (3), 12-O-(3-(5-(3-methoxy-phenyl-carbamoyl)-4-methyl-thiazol-2-amino)-propyl)-Berbamine], the “improvement of anti-K562 activity compared with berbamine” value ([2]; vs berbamine) was 8 fold and the “improvement of anti-K562 activity compared with berbamine (second mention, K562/adr meant)” value ([3]; vs berbamine) was 8 fold.

With `COc1cccc(NC(=O)c2cnc(NCCCOc3ccc4cc3Oc3ccc(cc3)CC3c5cc(c(OC)cc5CCN3C)Oc3c(OC)c(OC)cc5c3C(C4)N(C)CC5)cn2)c1` (stereo not drawn) [Compound (4), 12-O-(3-(5-(3-methoxy-phenyl-carbamoyl)-pyrazin-2-amino)-propyl)-berbamine] the “improvement of anti-Jurkat acute lymphoblastic leukemia activity compared with berbamine” value ([1]; vs berbamine) was “more than 13 fold”, the “improvement of anti-RPMI8226 (multiple myeloma) cell line activity compared with berbamine” value ([7]; vs berbamine) was “more than 117 fold” and the “improvement of anti-MCP-7 (breast cancer) cell activity compared with berbamine” value ([8]; vs berbamine) was “more than 26 fold”. For the same compound, the “improvement of anti-HepG2 cell activity compared with berbamine” value ([14]; vs berbamine) was “about 9 fold”, the “improvement of anti-MGC 803 cell activity compared with berbamine” value ([16]; vs berbamine) was “more than 8 fold” and the “improvement of anti-SW480 cell activity compared with berbamine” value ([20]; vs berbamine) was “more than 6 fold”.

For `COc1cccc(NC(=O)c2ccc(NCCCOc3ccc4cc3Oc3ccc(cc3)CC3c5cc(c(OC)cc5CCN3C)Oc3c(OC)c(OC)cc5c3C(C4)N(C)CC5)nc2)c1` (stereo not drawn) [Compound (6), 12-O-(3-(5-(3-methoxy-phenyl-carbamoyl)-pyridin-2-amino)-propyl)-berbamine], the “improvement of anti-A549 (human lung cancer) cell activity compared with berbamine” value ([10]; vs berbamine) was “more than 14 fold”.

For `CCOCCCCOc1ccc2cc1Oc1ccc(cc1)C[C@H]1c3cc(c(OC)cc3CCN1C)Oc1c(OC)c(OC)cc3c1[C@@H](C2)N(C)CC3` [EBB, [O-(4-ethoxy)-butyl]-berbamine], the “specific coefficient as CaM antagonist relative to berbamine” value [24] is listed as 6.5 times.

For O-Dansyl berbamine [DB], the “inhibitory activity on red cell membrane CaM-independent Ca2++Mg2+ ATPase relative to berbamine” value [25] is listed as 25 times.
